Laboratory results published in PubChem BioAssay (NCI).
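How tested: cells in 96-well plates exposed to compound for 48 hours at five concentrations. TGI marks complete inhibition of growth.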

Experiments:
Test in all cases: NCI tumour cell line growth inhibition, 48 h
786-0 renal = system: 786-0 renal
A498 renal = system: A498 renal
A549 NSCLC = system: A549 NSCLC
ACHN renal = system: ACHN renal
BT-549 breast = system: BT-549 breast
CAKI-1 renal = system: CAKI-1 renal
CCRF-CEM leukemia = system: CCRF-CEM leukemia
COLO 205 colon = system: COLO 205 colon
DU-145 prostate = system: DU-145 prostate
EKVX NSCLC = system: EKVX NSCLC
HCC-2998 colon = system: HCC-2998 colon
HCT-116 colon = system: HCT-116 colon
HCT-15 colon = system: HCT-15 colon
HL-60(TB) leukemia = system: HL-60(TB) leukemia
HOP-62 NSCLC = system: HOP-62 NSCLC
HOP-92 NSCLC = system: HOP-92 NSCLC
HS 578T breast = system: HS 578T breast
HT29 colon = system: HT29 colon
IGROV1 ovarian = system: IGROV1 ovarian
K-562 leukemia = system: K-562 leukemia
KM12 colon = system: KM12 colon
LOX IMVI melanoma = system: LOX IMVI melanoma
M14 melanoma = system: M14 melanoma
MALME-3M melanoma = system: MALME-3M melanoma
MCF7 breast = system: MCF7 breast
MDA-MB-231 breast = system: MDA-MB-231 breast
MDA-MB-435 = system: MDA-MB-435
MDA-N = system: MDA-N
MOLT-4 leukemia = system: MOLT-4 leukemia
NCI-H226 lung = system: NCI-H226 lung
NCI-H23 lung = system: NCI-H23 lung
NCI-H522 lung = system: NCI-H522 lung
NCI/ADR-RES ovarian = system: NCI/ADR-RES ovarian
OVCAR-3 ovarian = system: OVCAR-3 ovarian
OVCAR-4 ovarian = system: OVCAR-4 ovarian
OVCAR-5 ovarian = system: OVCAR-5 ovarian
OVCAR-8 ovarian = system: OVCAR-8 ovarian
RPMI-8226 leukemia = system: RPMI-8226 leukemia
RXF 393 renal = system: RXF 393 renal
SF-268 CNS = system: SF-268 CNS
SF-295 CNS = system: SF-295 CNS
SF-539 CNS = system: SF-539 CNS
SK-MEL-2 melanoma = system: SK-MEL-2 melanoma
SK-MEL-5 melanoma = system: SK-MEL-5 melanoma
SK-OV-3 ovarian = system: SK-OV-3 ovarian
SN12C renal = system: SN12C renal
SNB-19 CNS = system: SNB-19 CNS
SNB-75 CNS = system: SNB-75 CNS
SW-620 colon = system: SW-620 colon
T-47D breast = system: T-47D breast
TK-10 renal = system: TK-10 renal
UACC-257 melanoma = system: UACC-257 melanoma
UACC-62 melanoma = system: UACC-62 melanoma
UO-31 renal = system: UO-31 renal
NCI-H460 lung = system: NCI-H460 lung
PC-3 prostate = system: PC-3 prostate
SK-MEL-28 melanoma = system: SK-MEL-28 melanoma
SR leukemia = system: SR leukemia
U251 CNS = system: U251 CNS

Measured: TGI

C=C(C)[C@@H]1CCC2=C[C@@H](OC2=O)[C@@H](C(=C)C)C2=CC(C(=O)O)=C(C1)O2
not listed: NCI-H460 lung | PC-3 prostate | SK-MEL-28 melanoma | SR leukemia | U251 CNS
> 100 µM: all other assays above

O[C@H]1[C@H]2c3cc4c(cc3CN3CCC(=C[C@@H]1O)[C@H]23)OCO4
6.91 µM: SK-MEL-5 melanoma
7.95 µM: UACC-62 melanoma
5.88 µM: NCI-H460 lung
7.51 µM: CCRF-CEM leukemia
2.6 µM: RXF 393 renal
29.6 µM: NCI-H226 lung
26.7 µM: MDA-N
> 28.4 µM: HS 578T breast
> 27.4 µM: HOP-62 NSCLC
0.874 µM: IGROV1 ovarian
22 µM: OVCAR-5 ovarian
5.06 µM: LOX IMVI melanoma
7.87 µM: MDA-MB-435
5.03 µM: RPMI-8226 leukemia
8.84 µM: HCC-2998 colon
10.7 µM: MALME-3M melanoma | NCI/ADR-RES ovarian
13.7 µM: NCI-H23 lung
9.5 µM: SN12C renal
> 21.3 µM: T-47D breast
6.37 µM: HL-60(TB) leukemia
12.8 µM: A498 renal
13.1 µM: A549 NSCLC
3.57 µM: SF-268 CNS
7.55 µM: OVCAR-8 ovarian
5.74 µM: SF-539 CNS
> 26.7 µM: U251 CNS
4.65 µM: MOLT-4 leukemia
20.5 µM: SK-OV-3 ovarian
3.07 µM: NCI-H522 lung
5.34 µM: PC-3 prostate
7.07 µM: ACHN renal
> 36.9 µM: SW-620 colon
10.8 µM: EKVX NSCLC
22.4 µM: KM12 colon
24.9 µM: SNB-75 CNS
2.12 µM: SK-MEL-2 melanoma
22.6 µM: SK-MEL-28 melanoma
4.34 µM: CAKI-1 renal
30.6 µM: HT29 colon
4.24 µM: SR leukemia
> 100 µM: HCT-116 colon
8.2 µM: M14 melanoma
8.4 µM: OVCAR-4 ovarian
1.71 µM: MCF7 breast
4.77 µM: UO-31 renal
2.79 µM: COLO 205 colon
12 µM: K-562 leukemia
5.32 µM: HCT-15 colon
> 34 µM: 786-0 renal
10.2 µM: MDA-MB-231 breast
14.9 µM: SNB-19 CNS
5.43 µM: BT-549 breast
11.9 µM: OVCAR-3 ovarian | TK-10 renal
> 68.8 µM: SF-295 CNS

c1ccc(C(C2=Nc3cccc4cccc(c34)N2)c2ccccc2)cc1
68 µM: UACC-257 melanoma
30.2 µM: SN12C renal
34.2 µM: SF-539 CNS
35.3 µM: U251 CNS
87.3 µM: PC-3 prostate
38.2 µM: SK-MEL-5 melanoma
44 µM: HOP-92 NSCLC
51.8 µM: SK-OV-3 ovarian
36.3 µM: NCI-H522 lung
56.6 µM: HOP-62 NSCLC
65 µM: M14 melanoma
73.3 µM: MALME-3M melanoma
93.6 µM: HCT-15 colon
37.3 µM: LOX IMVI melanoma
32.8 µM: UACC-62 melanoma
37 µM: T-47D breast
42.8 µM: SF-295 CNS
80.7 µM: EKVX NSCLC
54.3 µM: NCI-H460 lung
61.4 µM: BT-549 breast
91.3 µM: DU-145 prostate
50.5 µM: NCI/ADR-RES ovarian
72.4 µM: SNB-75 CNS
81.7 µM: K-562 leukemia
50 µM: SK-MEL-2 melanoma
49.6 µM: KM12 colon
81.8 µM: HS 578T breast
49.3 µM: MDA-N
51.2 µM: UO-31 renal
61.5 µM: RXF 393 renal
84.7 µM: NCI-H226 lung
41.5 µM: OVCAR-3 ovarian
50.2 µM: ACHN renal
60.1 µM: HT29 colon
37.8 µM: HCC-2998 colon
66.1 µM: MDA-MB-435 | SF-268 CNS
36.7 µM: COLO 205 colon
69.9 µM: 786-0 renal
52 µM: SK-MEL-28 melanoma
not listed: A498 renal | HCT-116 colon | MOLT-4 leukemia | OVCAR-5 ovarian | SR leukemia
> 100 µM: all other assays above

c1cc2c(cc1NC1=NCCO1)CCC2
7.72 µM: SNB-19 CNS
not listed: A498 renal | ACHN renal | BT-549 breast | CAKI-1 renal | DU-145 prostate | M14 melanoma | MDA-MB-231 breast | NCI-H226 lung | NCI-H522 lung | NCI/ADR-RES ovarian | OVCAR-5 ovarian | UACC-257 melanoma | UO-31 renal | NCI-H460 lung | U251 CNS
> 10 µM: all other assays above

CC1OC(OC2C(O[C@H]3CC[C@@H]4C(=CC[C@@H]5[C@@]4(C)C(=O)C[C@]4(C)[C@@H]([C@H](C)CC[C@@H](O)C(C)(C)O)CC[C@@]54C)C3(C)C)OC(CO)C(O)C2O)C(O)C(O)C1O (stereo partly specified)
not listed: RPMI-8226 leukemia | SR leukemia
> 100 µM: all other assays above

CN(Cc1cnc2nc(N)nc(N)c2n1)c1ccc(C(=O)NCCS(=O)(=O)O)cc1
not listed: CCRF-CEM leukemia | HOP-92 NSCLC | RXF 393 renal
> 100 µM: all other assays above
